# Data reported in article PMC7367283, “A PIP2 substitute mediates voltage sensor-pore coupling in KCNQ activation” (Communications Biology, 2020).
# Experiments:
# KCNQ1 = KCNQ1 (Homo sapiens, UniProt P51787); assay: KCNQ1 co-expressed with CiVSP (PIP2 depletion), two-electrode voltage clamp in Xenopus oocytes; assay type: cell-based; details: ~10 µM CP1 injected into the oocyte; pulses to +60 mV
# Excerpt: We co-expressed KCNQ1 with the voltage-dependent lipid phosphatase CiVSP[44] in Xenopus oocytes and recorded KCNQ1 currents using two-electrode voltage clamp with consecutive depolarizing voltage pulses. […] To more directly test CP1 effects, we applied CP1 to the intracellular side of the inside-out membrane patch that expressed IKs channels.
# IKs channels = IKs channels (Homo sapiens, UniProt P51787); assay: Inside-out patch clamp of IKs channels expressed in Xenopus oocytes (rundown and rescue); assay type: cell-based; details: 10 µM CP1 on intracellular side; pulses to +80 mV
# Excerpt: We tested whether CP1 can mimic PIP2 in mediating VSD-pore coupling. We co-expressed KCNQ1 with the voltage-dependent lipid phosphatase CiVSP[44] in Xenopus oocytes and recorded KCNQ1 currents using two-electrode voltage clamp with consecutive depolarizing voltage pulses. The current increased upon KCNQ1 activation at the beginning of the first voltage pulse (First trace, Fig. 2a) and then declined due to CiVSP activation to deplete PIP2[18]. A subsequent voltage pulse elicited much smaller KCNQ1 currents (Rundown trace, Fig. 2a) as a result of PIP2 depletion that had insufficient time to be replenished by endogenous enzymes between the pulses. […] Similarly, the IKs channel (KCNQ1 + KCNE1) currents decrease upon co-expression with CiVSP with consecutive voltage pulses (Fig. 2c, d), which is similar to our previous observations. […] To more directly test CP1 effects, we applied CP1 to the intracellular side of the inside-out membrane patch that expressed IKs channels. […]
# Macroscopic currents expressed in Xenopus oocytes were recorded from inside-out patches formed with borosilicate pipettes of 0.5–1.0-MΩ resistance. […]
smiles,measurement,setting,value
"O=S(=O)([O-])Oc1c(-c2sc3c(ccc4cccc(Cl)c43)c2OS(=O)(=O)[O-])[nH]c2ccc(Br)cc12.[Na+].[Na+] [CP1, DISODIUM 5-BROMO-2-[9-CHLORO-3-(SULFONATOOXY) NAPHTHO [1,2-B] THIEN-2-YL]-1H-INDOL-3-YL SULFATE]",KCNQ1 currents after PIP2 depletion,KCNQ1,currents increased with consecutive voltage pulses
same,IKs current after rundown in inside-out patch,IKs channels,the current increased with consecutive voltage pulses
